Results: patent US12485178B2, “Bifunctional small molecules to target the selective degradation of circulating proteins” (YALE UNIVERSITY, priority 2018, dated 2025)

Columns and labels:
human MIF [1] = target: T1, human MIF (Homo sapiens, UniProt P14174); test: Depletion of human MIF from supernatant of cultured HepG2 cells (sandwich ELISA); format: cell-based; conditions: 100 nM huMIF, after 24 hours
T1 sequence (P14174 2-115 limits assumed): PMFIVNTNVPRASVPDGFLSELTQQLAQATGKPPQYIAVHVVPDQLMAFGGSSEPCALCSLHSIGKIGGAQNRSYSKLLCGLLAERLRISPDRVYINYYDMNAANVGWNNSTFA
Experimental: In an experiment the results of which are presented in FIG. 3, bifunctional molecules were able to deplete human MIF from the supernatant of culture HepG2 cells. Briefly, human MIF (100 nM) was added to cell culture media in the presence of negative control MIF inhibitor 3w as well as bifunctional molecules MIF-NVS-PEGn-GN3, MIF-GN3, MIF-PEGn-Gn3, MIF-AcF3-1, MIF-AcF3-2, and MIF-AcF3-3. All molecules utilized a known MIF-binding ligand. Experiments were performed in 96 well plates (approximate surface area 0.3 cm^2). HepG2 cells were grown to 90% confluency in RPMI media, then washed with PBS (2×) and treated with serum-free media (optimem+0.1% BSA, +Pen/Strep) containing 100 nM huMIF (Cayman Chemical) and compounds (when applicable). Compounds were diluted from 1 mM stock solutions in DMSO. After 24 hours, a sample of the supernatant (2 uL) was collected, diluted 1:100, and analyzed for MIF content by sandwich ELISA (and incubated for 24 hours in the presence or absence of compound). Remaining MIF levels were determined by sandwich ELISA (biolegend monoclonal anti-MIF and biotinylated anti-MIF antibodies). Data represents the average of at least 3 biological replicates, and error bars represent a standard deviation. After 24 hours, up to 95.3% of the MIF had been depleted from cell culture media (in the case of MIF-AcF3-3).

human MIF [2] = target: T1, human MIF; test: Trafficking of MIF internalized by HepG2 cells to lysosomes (immunofluorescence colocalization); format: cell-based; conditions: 100 nM rhuMIF, 200 nM compound, 12 hours
Experimental: In this experiment, cells were incubated with rhuMIF (Cayman) at a concentration of 100 nM with 200 nM MIF-GN3.

human MIF [3] = target: T1, human MIF; test: Depletion of injected human MIF from mice (serum sandwich ELISA); format: in vivo, mouse
Experimental: Human MIF has a half-life of approximately 40 minutes in mice. In this experiment, human recombinant MIF (Cayman chemical) was co-injected into mice with an anti-DNP IgG, which was used as an injection positive control. In particular, nude mice were injected with 5 μg recombinant human MIF and 200 μg anti-DNP IgG as an injection control (FIG. 4). MIF-GN3 was then injected at the concentration shown and blood drawn every twenty minutes over the course of two hours. Serum was diluted 1:100 and analyzed for MIF content by sandwich ELISA (biolegend monoclonal anti-MIF and biotinylated anti-MIF antibodies). […] In the mice treated with MIF-GN3, a moderate increase in huMIF levels up to 20 ng/ml was seen, while in mice injected with PBS negative control, serum levels of up to 150 ng/ml were observed, evidencing a substantial decrease in huMIF levels as a consequence of the administration of MIF-GN3.

[4] = system: PC3 human prostate cancer cells; test: Mouse model of prostate cancer (PC3 engraftment), tumor growth; format: in vivo; conditions: nude mice engrafted with PC3 cells, treatment initiated immediately
Description: In this experiment, nude mice were engrafted with PC3 human prostate cancer cells. Treatment was then initiated immediately with either a non-bifunctional MIF inhibitor (3w), an anti-MIF antibody, or MIF-GN3.

| Structure (SMILES) | MIF depleted from cell culture media (human MIF [1]) [%] | MIF internalization in lysosomes (human MIF [2]) | serum huMIF levels (human MIF [3]; nude mice injected with 5 μg recombinant human MIF, blood drawn over two hours) | depletion of injected human MIF from mice (human MIF [3]; nude mice, FIG. 5) | tumor growth [4] |
| --- | --- | --- | --- | --- | --- |
| O=C(CCOCC(COCCC(=O)NCCOCCOCCOCCOC[C@@]12CO[C@@H](O1)[C@H](NC(=O)C(F)(F)F)[C@@H](O)[C@H]2O)(COCCC(=O)NCCOCCOCCOCCOC[C@@]12CO[C@@H](O1)[C@H](NC(=O)C(F)(F)F)[C@@H](O)[C@H]2O)NC(=O)CCCOc1ccc2nc(-c3cn(-c4ccc(O)c(F)c4)nn3)ccc2c1)NCCOCCOCCOCCOC[C@@]12CO[C@@H](O1)[C@H](NC(=O)C(F)(F)F)[C@@H](O)[C@H]2O [MIF-AcF3-3] | 95.3 |  |  |  |  |
| CC(=O)N[C@H]1[C@H](OCCOCCOCCNC(=O)CCOCC(COCCC(=O)NCCOCCOCCO[C@@H]2O[C@H](CO)[C@H](O)[C@H](O)[C@H]2NC(C)=O)(COCCC(=O)NCCOCCOCCO[C@@H]2O[C@H](CO)[C@H](O)[C@H](O)[C@H]2NC(C)=O)NC(=O)CNC(=O)CCCOc2ccc3nc(-c4cn(-c5ccc(O)c(F)c5)nn4)ccc3c2)O[C@H](CO)[C@H](O)[C@@H]1O [MIF-GN3] |  | evidencing internalization in lysosomes | up to 20 ng/ml | mediates the depletion of injected human MIF from mice | slowing of tumor growth |
